| Structure (SMILES) | melting point [°C] |
| --- | --- |
| Cc1cc(N2CCN(Cc3ccc(C(F)(F)F)cc3)C2=O)sc1C(=O)NCc1cccnc1 [Example 15, 3-methyl-5-(2-oxo-3-(4-(trifluoromethyl)benzyl)imidazolidin-1-yl)-N-(pyridin-3-ylmethyl)thiophene-2-carboxamide] | 102 to 104 |
| CNC(=O)c1ccc(CN2CCN(c3nc(C)c(C(C)=O)s3)C2=O)cc1 [Example 8.6, 4-((3-(5-acetyl-4-methylthiazol-2-yl)-2-oxoimidazolidin-1-yl)methyl)-N-methylbenzamide] | 173 to 175 |
| Cc1nc(N2CCN(Cc3csc4ccc(Cl)cc34)C2=O)sc1C(=O)NCc1cccnc1 [Example 32, 2-(3-((5-chlorobenzo[b]thiophen-3-yl)methyl)-2-oxoimidazolidin-1-yl)-4-methyl-N-(pyridin-3-ylmethyl)thiazole-5-carboxamide] | 185 to 187 |
| Cc1nc(N2CCNC2=O)sc1C(=O)NCc1ccccc1 [Example 22, N-benzyl-4-methyl-2-(2-oxoimidazolidin-1-yl)thiazole-5-carboxamide] | 226 to 228 |
| Cc1nc(-n2ccn(Cc3ccc(F)cc3)c2=O)sc1C(=O)NCc1ccccc1 [Example 17, N-benzyl-2-(3-(4-fluorobenzyl)-2-oxo-2,3-dihydro-1H-imidazol-1-yl)-4-methylthiazole-5-carboxamide] | 167 to 168 |
| Cc1csc(N2CCN(Cc3ccc(C(=O)n4nccc4C)cc3)C2=O)n1 [Example 8.8, 1-(4-(5-methyl-1H-pyrazole-1-carbonyl)benzyl)-3-(4-methylthiazol-2-yl)imidazolidin-2-one] | 96 to 97 |
| COC(=O)c1ccc(CN2CCN(c3nc(C)c(C(C)=O)s3)C2=O)cc1 [Example 5.11, methyl 4-((3-(5-acetyl-4-methylthiazol-2-yl)-2-oxoimidazolidin-1-yl)methyl)benzoate] | 174 to 175 |
| CCOC(=O)c1sc(N2C[C@@H](Cc3ccccc3)NC2=O)nc1C [Example 11, (R)-ethyl 2-(4-benzyl-2-oxoimidazolidin-1-yl)-4-methylthiazole-5-carboxylate] | 102 to 103 |
| Cc1nc(N2CCN(Cc3ccccc3)C2=O)sc1C(=O)O [Example 6.2, 2-(3-benzyl-2-oxoimidazolidin-1-yl)-4-methylthiazole-5-carboxylic acid] | 248 to 249 |
| Cc1nc(-n2cnn(CCNCc3ccc(F)cc3)c2=O)sc1C(=O)NCc1cccnc1 [Example 47, 2-(1-(2-(4-fluorobenzylamino)ethyl)-5-oxo-1H-1,2,4-triazol-4(5H)-yl)-4-methyl-N-(pyridin-3-ylmethyl)thiazole-5-carboxamide] | 106 to 107 |
| Cc1nc(N2CCN(c3ccccc3)C2=O)sc1C(=O)O [Example 6, 4-methyl-2-(2-oxo-3-phenylimidazolidin-1-yl)thiazole-5-carboxylic acid] | 286 to 289 |
| Cc1nc(N2CCN(Cc3ccccc3)C2=O)sc1C(=O)NCc1cccc(F)c1 [Example 8.1, 2-(3-benzyl-2-oxoimidazolidin-1-yl)-N-(3-fluorobenzyl)-4-methylthiazole-5-carboxamide] | 169 to 171 |
| Cc1nc(N2CCN(Cc3ccc(C(F)(F)F)cc3)C2=O)sc1-c1cc[nH]n1 [Example 38, 1-(4-methyl-5-(1H-pyrazol-3-yl)thiazol-2-yl)-3-(4-(trifluoromethyl)-benzyl)imidazolidin-2-one] | 212 to 213 |

The remaining lines, values ahead:

| melting point [°C] | Structure (SMILES) |
| --- | --- |
| 154 to 155 | Cc1nc(-n2cnn(CCOc3ccc(F)cc3)c2=O)sc1C(=O)NCc1cccnc1 [Example 21.2, 2-(1-(2-(4-fluorophenoxy)ethyl)-5-oxo-1H-1,2,4-triazol-4(5H)-yl)-4-methyl-N-(pyridin-3-ylmethyl)thiazole-5-carboxamide] |
| 146 to 147 | Cc1nc(N2CCN(CCC3CC3)C2=O)sc1C(=O)NCc1cccnc1 [Example 9.26, 2-(3-(2-cyclopropylethyl)-2-oxoimidazolidin-1-yl)-4-methyl-N-(pyridin-3-ylmethyl)thiazole-5-carboxamide] |
| 208 to 210 | Cc1cc(-n2cnn(Cc3ccc(S(C)(=O)=O)cc3)c2=O)sc1C(=O)NCc1cccnc1 [Example 31.4, 3-methyl-5-(1-(4-(methylsulfonyl)benzyl)-5-oxo-1H-1,2,4-triazol-4(5H)-yl)-N-(pyridin-3-ylmethyl)thiophene-2-carboxamide] |
| 142 to 143 | Cc1nc(N2CCN(CC3CCCC3)C2=O)sc1C(=O)NCc1cccnc1 [Example 9.38, 2-(3-(cyclopentylmethyl)-2-oxoimidazolidin-1-yl)-4-methyl-N-(pyridin-3-ylmethyl)thiazole-5-carboxamide] |
| 109 to 111 | CCCN1CCN(c2nc(C)c(C(=O)NCc3cccnc3)s2)C1=O [Example 9.40, 4-methyl-2-(2-oxo-3-propylimidazolidin-1-yl)-N-(pyridin-3-ylmethyl)thiazole-5-carboxamide] |
| 110 to 112 | Cc1nc(N2CCN(Cc3ccc4nonc4c3)C2=O)sc1C(=O)NCc1cccnc1 [Example 32.6, 2-(3-(benzo[c][1,2,5]oxadiazol-5-ylmethyl)-2-oxoimidazolidin-1-yl)-4-methyl-N-(pyridin-3-ylmethyl)thiazole-5-carboxamide] |
| 201 to 202 | Cc1nc(-n2cnn(CCO)c2=O)sc1C(=O)NCc1cccnc1 [Example 19.9, 2-(1-(2-hydroxyethyl)-5-oxo-1H-1,2,4-triazol-4(5H)-yl)-4-methyl-N-(pyridin-3-ylmethyl)thiazole-5-carboxamide] |
| 189 to 191 | Cc1cnc(CNC(=O)c2sc(-n3cnn(Cc4ccc(F)cc4)c3=O)cc2C)cn1 [Example 31.5, 5-(1-(4-fluorobenzyl)-5-oxo-1H-1,2,4-triazol-4(5H)-yl)-3-methyl-N-((5-methylpyrazin-2-yl)methyl)thiophene-2-carboxamide] |
| 148 to 151 | Cc1nc(N2CCN(CC3CC3)C2=O)sc1C(=O)NCc1ccccn1 [Example 32.24, 2-(3-(cyclopropylmethyl)-2-oxoimidazolidin-1-yl)-4-methyl-N-(pyridin-2-ylmethyl)thiazole-5-carboxamide] |
| 176 to 178 | Cc1cc(-n2cnn(Cc3ccc(C(F)(F)F)cc3)c2=O)sc1C(=O)NCc1cccnc1 [Example 31.3, 3-methyl-5-(5-oxo-1-(4-(trifluoromethyl)benzyl)-1H-1,2,4-triazol-4(5H)-yl)-N-(pyridin-3-ylmethyl)thiophene-2-carboxamide] |
| 191 to 193 | Cc1cnc(CNC(=O)c2sc(N3CCN(Cc4ccc(F)cc4)C3=O)nc2C)cn1 [Example 32.10, 2-(3-(4-fluorobenzyl)-2-oxoimidazolidin-1-yl)-4-methyl-N-((5-methylpyrazin-2-yl)methyl)thiazole-5-carboxamide] |
| 172 to 173 | Cc1cnc(CNC(=O)c2sc(N3CCN(Cc4ccc(C(F)(F)F)cc4)C3=O)nc2C)cn1 [Example 9.33, 4-methyl-N-((5-methylpyrazin-2-yl)methyl)-2-(2-oxo-3-(4-(trifluoromethyl)benzyl)imidazolidin-1-yl)thiazole-5-carboxamide] |
| 148 to 150 | Cc1cc(-n2cnn(CCC3CC3)c2=O)sc1C(=O)NCc1cccnc1 [Example 31.2, 5-(1-(2-cyclopropylethyl)-5-oxo-1H-1,2,4-triazol-4(5H)-yl)-3-methyl-N-(pyridin-3-ylmethyl)thiophene-2-carboxamide] |
| 143 to 145 | Cc1nc(N2CCN(Cc3ccc(C(F)(F)F)o3)C2=O)sc1C(=O)NCc1ccccc1 [Example 23.4, N-benzyl-4-methyl-2-(2-oxo-3-((5-(trifluoromethyl)furan-2-yl)methyl)imidazolidin-1-yl)thiazole-5-carboxamide] |
| 250 to 252 | O=C(O)c1cnc(N2CCN(CC3CC3)C2=O)s1 [Example 25.1, 2-(3-(cyclopropylmethyl)-2-oxoimidazolidin-1-yl)thiazole-5-carboxylic acid] |
| 189 to 190 | Cc1nc(-n2cnn(Cc3ccc(F)cc3)c2=O)sc1C(=O)NCc1nccs1 [Example 21.12, 2-(1-(4-fluorobenzyl)-5-oxo-1H-1,2,4-triazol-4(5H)-yl)-4-methyl-N-(thiazol-2-ylmethyl)thiazole-5-carboxamide] |
| 182 to 184 | Cc1nc(N2C(=O)N(CCc3ccc(F)cc3)CC2O)sc1C(=O)NCc1cccnc1 (stereo not drawn) [Example 16.1, 2-(3-(4-fluorophenethyl)-5-hydroxy-2-oxoimidazolidin-1-yl)-4-methyl-N-(pyridin-3-ylmethyl)thiazole-5-carboxamide] |
| 122 to 123 | Cc1nc(N2CCN(CCC3CC3)C2=O)sc1C(=O)NCc1ccc(F)cc1 [Example 9.18, 2-(3-(2-cyclopropylethyl)-2-oxoimidazolidin-1-yl)-N-(4-fluorobenzyl)-4-methylthiazole-5-carboxamide] |
| 157 to 158 | Cc1nc(N2CCN(Cc3ccccc3)C2=O)sc1C(=O)NCc1ccc(F)cc1F [Example 9.4, 2-(3-benzyl-2-oxoimidazolidin-1-yl)-N-(2,4-difluorobenzyl)-4-methylthiazole-5-carboxamide] |
| 173 to 174 | Cc1nc(N2CCN(Cc3ccc(F)cc3)C2=O)sc1C(=O)NCc1ccc(C(F)F)o1 [Example 9.44, N-((5-(difluoromethyl)furan-2-yl)methyl)-2-(3-(4-fluorobenzyl)-2-oxoimidazolidin-1-yl)-4-methylthiazole-5-carboxamide] |
| 48 to 50 | Cc1nc(N2CCCN(Cc3ccc(F)cc3)C2=O)sc1C(=O)NCc1cccnc1 [Example 32.25, 2-(3-(4-fluorobenzyl)-2-oxotetrahydropyrimidin-1(2H)-yl)-4-methyl-N-(pyridin-3-ylmethyl)thiazole-5-carboxamide] |
| 143 to 145 | Cc1nc(N2CCN(Cc3cccc(C(=O)O)c3)C2=O)sc1C(=O)NCc1ccccc1 [Example 25.3, 3-((3-(5-(benzylcarbamoyl)-4-methylthiazol-2-yl)-2-oxoimidazolidin-1-yl)methyl)benzoic acid] |
| 127 to 128 | Cc1nc(N2CCN(CCCc3ccccc3)C2=O)sc1C(=O)NCc1cccnc1 [Example 9.27, 4-methyl-2-(2-oxo-3-(3-phenylpropyl)imidazolidin-1-yl)-N-(pyridin-3-ylmethyl)thiazole-5-carboxamide] |
